“Also recorded” adds a separate entry of the source. Where no end group is shown, it is not given here.
Key:
[1] = test system: APP processing in HEK293-APP cells; assay: Cell based assay of APP processing (βCTF, Western blot) in HEK293-APP cells; design: species or system human; settings: βCTF
Description: In the neuronal cells of the brain, APP is processed by α-secretase or β-secretase. To investigate the effects of the inhibitors on the cell, a cell based assay system was developed as described in FIG. 10. C-terminal fragment of APP remaining on the cell membrane was detected by Western blot. The resulting C-terminal fragments, αCTF or βCTF are further processed by γ-secretase. However, if the cells are treated with the γ-secretase inhibitor, this processing is blocked. As a result, αCTF or βCTF accumulate in the cell. If β-secretase inhibitor or APP inhibitor is added, this processing is blocked and βCTF disappears.
To test APP inhibitor activities in cells, three complementary peptides, c-Sub M, c-Sub MΔC6, and c-Sub MΔN1C1, which show high absorbance in binding test, were added to whole cell extracts of HEK293-APP cells (Lanes 2, 3, and 4 in FIG. 11). In addition, γ-secretase inhibitor and cholesterol were added to the cells to increase βCTF level. Commercially available peptide-based β-secretase inhibitor was included as control (Lane 6, FIG. 11). To detect the N-terminal fragment of β-amyloid which is a product of APP processing, 6E10 antibody was employed. […] Recently, it has been reported that the commercially available peptide-based inhibitor had to be linked to an oligoarginine transporter peptide to have inhibitory activity against cells. Therefore, mimetic approach is adopted to produce cell permeable analogs. (Chang et al. J. Neurochemistry 2004; 89:1409-1416).
After confirming the ability of the oligo-arginine coupled APP inhibitors to enter the cells, the inhibitors were applied to HEK293-APP cells overexpressing APP to test their inhibitory activities on APP processing. […] This inhibitor started to show significant inhibitory activity beginning from 0.1 μM (lower panel).

[2] = test system: Substrate M (SEVNLDAEFR, β-secretase cleavage site of APPsw); assay: Binding of biotin-labeled Substrate M to immobilized complementary (HC) peptides; settings: biotin-labeled Sub M, peptide immobilized on plate
Description: (§1) Complementary peptides (0.2, 2, 20, and 200 μM) were dissolved in phosphate buffered saline (PBS) (pH 7.4) and fixed to microtiter wells for 5 hr at 37° C. The wells were blocked with blocking buffer (3% BSA/PBS) for 1 hr at 37° C. Either N-terminally biotinylated Substrate W or M (20 μM) in blocking buffer was added and incubated for overnight at 4° C. Streptavidin-horseradish peroxidase in blocking buffer was added to detect resulting bound substrates. The plate was incubated for 2 hr at room temperature (RT), followed by addition of 3, 3′, 5,5′-tetramethyl-benzidine (TMB) as substrate for horseradish peroxidase for color reaction.
(§2) Reacti-Bind™ maleic anhydride-activated polystyrene plate (Pierce, IL, USA) was coated with 50 μl of HC peptide (200 μM in distilled water) by chemical coupling for 3 h at room temperature (RT) and washed three times with phosphate buffered saline (PBS) containing 0.05% tween 20 (PBST). The plate was blocked with blocking buffer (0.5% gelatin in PBS) for 1 h at RT. After discarding blocking buffer, biotinylated BACE1 substrates (200 μM) in blocking buffer was applied on the plate and incubated for 2.5 h at RT. Each well was washed three times with PBST. The bound biotinylated BACE1 substrates were detected by incubation with streptavidin-horseradish peroxidase (Str-HRP, 125 mU/ml in blocking buffer) for 2 h at RT. Color reaction was carried out with 50 μl of 3,3′,5,5′-Tetramethylbenzidine Liquid Substrate (Sigma-Aldrich, MO, USA). After stopping the reaction by addition of an equal volume of 1 N HCl, absorbance at 450 nm was read in an automated ELISA reader (EL 312e, Bio-Tek Instruments, VT, USA). All assays were carried out in duplicate.

[3] = test system: cleavage of Substrate M by rhBACE (recombinant human β-secretase); assay: Fluorometric (FRET) assay for cleavage of F-Substrate M by β-secretase; type: biochemical; settings: for inhibitory activity group on Substrate M cleavage: tested at various concentrations (FIG. 8)
Excerpt: This assay system utilizes fluorescence resonance energy transfer (FRET) technology. Substrate M was synthesized with two fluorophores, a fluorescent donor and a proprietary quenching acceptor (purchased from a commercial source, R&D Systems). […] Upon cleavage of substrate by β-secretase, the fluorophore is separated from the quenching group, restoring the full fluorescence yield of donor.
Substrate labeled with fluorophores will be called F-Substrate M (R&D Systems). Recombinant human β-secretase will be called rhBACE (recombinant human β-site APP cleavage enzyme) (purchased from R&D systems).
[…] Cleavage by rhBACE was detected by reading emitted fluorescence level.
In this assay system, fluorescence resonance energy transfer (FRET) technology was utilized. […] After pre-incubation, substrate and HC peptide mixture in assay buffer was transferred to FluoroNunc™ 96 well white plate (Nunc, Roskilde, Denmark), and rhBACE1 (70 nM) was added. Time-dependent emission of fluorescence (excitation at 320 nm, emission at 405 nm) was monitored in a Molecular Devices SpectraMax Gemini EM fluorescence reader (CA, USA) for 1 h at 37° C. All assays were carried out in duplicate.

rhBACE1 = biological target: T1, rhBACE1 (Homo sapiens, UniProt P56817); assay: ELISA binding of rhBACE1 to immobilized c-Sub M
T1 construct: purchased R&D Systems
T1 sequence (P56817 46-501): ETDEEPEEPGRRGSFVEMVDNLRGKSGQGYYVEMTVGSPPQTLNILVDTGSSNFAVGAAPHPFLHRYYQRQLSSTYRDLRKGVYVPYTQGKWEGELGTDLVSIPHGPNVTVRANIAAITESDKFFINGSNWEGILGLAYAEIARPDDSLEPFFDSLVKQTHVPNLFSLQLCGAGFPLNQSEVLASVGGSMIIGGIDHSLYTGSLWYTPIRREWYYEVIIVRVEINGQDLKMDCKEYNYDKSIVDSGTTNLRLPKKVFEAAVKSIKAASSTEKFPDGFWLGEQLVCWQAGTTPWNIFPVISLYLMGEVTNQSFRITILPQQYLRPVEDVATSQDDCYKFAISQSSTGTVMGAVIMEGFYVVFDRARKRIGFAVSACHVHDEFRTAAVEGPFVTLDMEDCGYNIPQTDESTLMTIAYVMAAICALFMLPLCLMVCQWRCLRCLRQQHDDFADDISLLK
Excerpt: In one embodiment of the present invention, four HC decapeptides targeted to either wild type APP or APPsw may be designed. […] Therefore, there is possibility that c-Sub M or any compounds derived from c-Sub M may inhibit production of Aβ from wild type APP in cells.

[4] = biological target: T2, Substrate W (SEVKMDAEFR, β-secretase cleavage site of wild type APP) (Homo sapiens, UniProt P05067); assay: Binding of biotin-labeled Substrate W to immobilized complementary (HC) peptides
T2 construct: purchased Peptron, Inc; host or cells: chemical synthesis
Description: as §1
In particular, for Substrate W, complementary peptides (200 μM) dissolved in phosphate buffered saline (PBS) (pH 7.4) were chemically coupled to Reacti-Bind Maleic Anhydride Activated Polystyrene wells (Pierce Biotechnology, Inc.) for overnight at room temperature (RT). Remaining active sites of the plate were inactivated by adding ethanolamine (1 M) for 1 hr at RT. The wells were blocked with blocking buffer (3% BSA/PBS) for 1 hr at RT. N-terminally biotinylated Substrate W (20 μM) in blocking buffer was added and incubated for 3 hr at RT. Streptavidin-horseradish peroxidase in blocking buffer was added to detect resulting bound substrates. The plate was incubated for 2 hr at room temperature (RT), followed by addition of 3,3′,5,5′-tetramethyl-benzidine (TMB) as substrate for horseradish peroxidase for color reaction.
as §2

[5] = test system: γ-secretase (membrane fractions of N2a cells); assay: γ-Secretase activity assay on membrane fractions of N2a cells; type: biochemical, mouse; settings: 200 μM peptide, 12.5 μM fluorogenic substrate, 1 hour preincubation
Description: Since γ-secretase is composed of four components, cloning of γ-secretase gene is impossible. Therefore, cell extracts were used as γ-secretase source. To obtain the cell extracts, after cell lysis with extraction buffer, the lysate was centrifuged at 10,000×g for 1 minute. Afterward, 2× reaction buffer and fluorogenic substrate was mixed and added to the cell lysate. Then, this mixture was incubated at 37° C. and γ-secretase activity was detected at excitation 335 to 355 nm and emission 495 to 510 nm.
γ-Secretase activity assay was performed on membrane fractions of N2a cells in the presence of several complementary peptides. After 12.5 μM fluorogenic substrate and 200 μM each of the complementary peptides were preincubated for 1 hour, γ-secretase was added to the mixture. In the course of time, the fluorogenic substrate was cleaved by the γ-secretase.

[6] = test system: γ-secretase cleavage in KEK293 APP cells; assay: Cell based γ-secretase assay (α-CTF, Western); design: species or system human; settings: 9 hours treatment, α-CTF accumulation
Description: In order to test these peptides in the cell for their inhibitory effect on γ-secretase cleavage, a cell based assay was developed. After KEK293 APP cells were cultured in 6 well culture plates with 90% confluency, the cells were treated for 9 hours with N-[N-(3,5-difluorophenacetyl)-L-alanyl]-(S)-phenylglycine t-butyl ester (DAPT) (Dovey H F et al, J. Neurochemistry 2001; 76:173-181), which is a known γ-secretase inhibitor, and complementary peptides. The cells in each well were lysed and these lysates were separated with 15% tris-tricine gel. Western analysis was performed with R1 antibody as primary antibody and goat anti-rabbit-HRP as secondary antibody.

[7] = test system: cleavage of Sub M by rhBACE1; assay: HPLC analysis of cleavage of Substrate M by β-secretase; type: biochemical; settings: 25-fold amount of inhibitor; 420 nM β-secretase
Description: Substrate M (100 μM) was preincubated with complementary peptides ([…]) in assay buffer (100 μl) overnight at RT. rhBACE (140 nM) in assay buffer was added and incubated for 11 hr at RT. Cleavage products of Substrate M by rhBACE were quantitated after separation by C-18 reversed-phase column chromatography (GRACE VyDAC).
(§3) One of the advantages of the APP inhibitor described in the present invention is that it is a peptide or a mimetic that bind to the β-secretase cleavage site of APP, thus not affecting other β-secretase substrates. To confirm the specificity of the inventive APP inhibitor, two different types of substrates were used, APP Sub M and ST6Gal1. Both substrates are cleaved by β-secretase under normal conditions and the effect of the inventive APP inhibitor on the substrate cleavage was monitored by HPLC (See the schematic diagram in FIG. 16.) To carry out these experiments, the concentration of β-secretase required for cleavage of both substrates was determined as shown in FIG. 17. For substantial cleavage of ST6Gal1 substrate, 420 nM of the enzyme was required. Therefore, 420 nM of β-secretase was used for the following experiment.
Reversed-phase HPLC was also used to analyze the products of enzyme action in vitro. […] The cleavage products were identified at 215 nm and quantitated by integrating the area under each peak. […]

[8] = biological target: T3, cleavage of Sub-ST6Gal1 by rhBACE1 (Rattus norvegicus, UniProt P13721); assay: HPLC analysis of cleavage of ST6Gal1 substrate by β-secretase; type: biochemical, human; settings: up to 10 inhibitor/substrate ratio; Sub-ST6Gal1 50 μM, 500 nM rhBACE1
T3 construct: Sub-ST6Gal1 (50 μM, DYEALTLQAKEFQMPKSQE) peptide corresponding to the β-cleavage site of ST6Gal1; purchased R&D Systems (enzyme); A&Pep Co., Inc. (non-labelled peptides)
Excerpt: as §3
Various concentrations of HC peptide were preincubated with either Sub M (50 μM) or Sub-ST6Gal1 (50 μM, DYEALTLQAKEFQMPKSQE) peptide corresponding to the β-cleavage site of ST6Gal1 for 2 h at RT. The mixtures containing Sub M was treated with 50 nM of rhBACE1 and that containing Sub-ST6Gal1 was treated with 500 nM enzyme for 12 h at RT. Roughly 50% of each BACE1 substrate was cleaved in the absence of HC peptide. The cleavage products were separated on a C18 reversed-phase HPLC column as described above.

[9] = biological target: T4, Sub-ST6Gal1 (DYEALTLQAKEFQMPKSQE) (Rattus norvegicus, UniProt P13721); assay: Binding of bio-Sub-ST6Gal1 to immobilized HC peptide; settings: peptide coupled on microtiter plate
T4 construct: 19 amino acid region (DYEALTL/QAKEFQMPKSQE) that contains the β-cleavage site for investigation was chosen; purchased Peptron, Inc; host or cells: chemical synthesis
Description: as §2
It was investigated if HC peptide would show specificity for APP in terms of the inhibition of cleavage by BACE1. ST6Gal1 is also cleaved by BACE1. For this experiment, 19 amino acid region (DYEALTL/QAKEFQMPKSQE) that contains the β-cleavage site for investigation was chosen. The 19 amino acid peptide was designated as Sub-ST6Gal1. […]

Compound: SEFCIQIHFR-NH2 [c-Sub M, SEFCIQIHFR]
- inhibitory activity on APP processing [1]: does not inhibit the processing of APP in cells; also recorded: none of the inhibitors tested showed inhibitory activity
- entry / transport into the cells (HEK293-APP cells): does not enter the cells
- binding to Substrate M [2]: binds to Sub M appreciably and bind and binds its substrate Sub M and highest binding
- binding to Substrate M ([2]; listed as c-Sub): bound
- inhibition of cleavage of Substrate M by β-secretase ([3]; in vitro, rhBACE1): inhibit cleavage
- inhibitory activity group on Substrate M cleavage [3]: less activity
- binding to rhBACE1 (rhBACE1): does not bind to rhBACE1
- binding to Sub W relative to c-Sub W ([4]; bio-Sub W): 4 fold
- binding to Substrate W ([4]; biotin-labeled Sub W, peptide immobilized on plate): binds the wild type substrate Sub W efficiently

Compound: PQQYRCHRQR [rCh2 (3′→5′)]
- inhibitory effect on γ-secretase activity [5]: about 80%

Compound: C[C@H](NC(=O)Cc1cc(F)cc(F)c1)C(=O)N[C@H](C(=O)OC(C)(C)C)c1ccccc1 [DAPT, N-[N-(3,5-difluorophenacetyl)-L-alanyl]-(S)-phenylglycine t-butyl ester]
- inhibition of γ-secretase activity in cells [6]: inhibits γ-secretase activity very effectively

Compound: FCIQIHF (FCIQIHF-NH2) [c-Sub M ΔN2C1]
- Sub M cleavage blocked [7]: about 60%
- inhibitory activity group on Substrate M cleavage [3]: most active

Compound: EFCIQIHF [c-Sub M ΔN1C1]
- inhibitory activity on APP processing [1]: none of the inhibitors tested showed inhibitory activity
- inhibition of cleavage of Sub-ST6Gal1 [8]: about 10%
- inhibitory activity group on Substrate M cleavage [3]: most active
- binding of bio-Sub-ST6Gal1 [9]: also bound

— patent US7341991B2, “Inhibitors of amyloid precursor protein processing” (Posco, priority 2004, dated 2008)
